In ChEMBL document CHEMBL1201862, “PubChem BioAssay data set” (2004):
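The compound was tested at five concentrations on cells cultured in 96-well plates, with a 48-hour exposure period. The concentration for 50% growth inhibition is given as GI50.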 The source made the active and inactive calls. Cut-off read from the data, not from the text of the source: active = GI50 up to about 1.1 µM and inactive = higher.

Assays:
Assay in all cases: NCI tumour cell line growth inhibition, 48 h
U-251 = test system: U-251
K562 = test system: K562
TK-10 = test system: TK-10
SNB-75 = test system: SNB-75
Hs-578T = test system: Hs-578T
NCI/ADR-RES = test system: NCI/ADR-RES
COLO 205 = test system: COLO 205
MDA-MB-435 = test system: MDA-MB-435
SN12C = test system: SN12C
786-0 = test system: 786-0
OVCAR-5 = test system: OVCAR-5
UACC-257 = test system: UACC-257
KM12 = test system: KM12
IGROV-1 = test system: IGROV-1
HT-29 = test system: HT-29
SF-539 = test system: SF-539
HCT-116 = test system: HCT-116
Malme-3M = test system: Malme-3M
NCI-H226 = test system: NCI-H226
HCC 2998 = test system: HCC 2998

SMILES	GI50 (U-251)	GI50 (K562)	GI50 (TK-10)	GI50 (SNB-75)	GI50 (Hs-578T)	GI50 (NCI/ADR-RES)	GI50 (COLO 205)	GI50 (MDA-MB-435)	GI50 (SN12C)	GI50 (786-0)	GI50 (OVCAR-5)	GI50 (UACC-257)	GI50 (KM12)	GI50 (IGROV-1)	GI50 (HT-29)	GI50 (SF-539)	GI50 (HCT-116)	GI50 (Malme-3M)	GI50 (NCI-H226)	GI50 (HCC 2998)
CC(=O)OC1(C)N=NC2(CCCCC2)O1 (configuration not stated)	> 100 µM (inactive)	> 100 µM (inactive)	> 100 µM (inactive)	> 100 µM (inactive)	> 100 µM (inactive)	> 100 µM (inactive)	> 100 µM (inactive)	> 100 µM (inactive)	> 100 µM (inactive)	> 100 µM (inactive)	> 100 µM (inactive)	> 100 µM (inactive)	> 100 µM (inactive)	> 100 µM (inactive)	> 100 µM (inactive)	> 100 µM (inactive)	> 100 µM (inactive)	> 100 µM (inactive)	> 100 µM (inactive)	
O=C(O)Cc1c(-c2ccc([N+](=O)[O-])cc2)c(=O)oc2cc(O)ccc12	15.7 µM (inactive)	30.9 µM (inactive)	33.2 µM (inactive)		25.9 µM (inactive)	20 µM (inactive)	34.2 µM (inactive)	28.8 µM (inactive)	30.5 µM (inactive)	36.5 µM (inactive)	30.1 µM (inactive)	20.4 µM (inactive)	26.9 µM (inactive)	61.4 µM (inactive)	11.6 µM (inactive)	32.4 µM (inactive)	26.1 µM (inactive)	24.1 µM (inactive)	29 µM (inactive)	25.1 µM (inactive)
COc1cc(NC(C)c2ccc3c(c2)OCCO3)cc(OC)c1OC (configuration not stated)	29.5 µM (inactive)	8.97 µM (inactive)	63 µM (inactive)		20.9 µM (inactive)	22.9 µM (inactive)	31.3 µM (inactive)	4.69 µM (inactive)	63.2 µM (inactive)	34.4 µM (inactive)	46.6 µM (inactive)	28.7 µM (inactive)	31.5 µM (inactive)	59.3 µM (inactive)	33.7 µM (inactive)	22.1 µM (inactive)	30.3 µM (inactive)	19.1 µM (inactive)	24.3 µM (inactive)	23 µM (inactive)
COc1ccc(-c2c(N)n(-c3cc(OC)cc(OC)c3)c(=O)c3cc([N+](=O)[O-])ccc23)cc1	> 100 µM (inactive)	23.8 µM (inactive)	> 26 µM (inactive)		6.01 µM (inactive)	> 66.1 µM (inactive)	> 27.3 µM (inactive)	20.4 µM (inactive)	> 100 µM (inactive)	> 49.5 µM (inactive)	> 100 µM (inactive)	> 90.4 µM (inactive)	> 54.5 µM (inactive)	> 52.6 µM (inactive)	> 53.2 µM (inactive)	> 78.3 µM (inactive)	21.9 µM (inactive)	> 100 µM (inactive)	> 36.1 µM (inactive)	> 100 µM (inactive)
COC1/C=C\C=C(/C)C(=O)NC2=CC(=O)C(O)=C(CC(C)CC(OC)C(O)C(C)/C=C(\C)C1OC(N)=O)C2=O (configuration not stated)	1.03 µM (active)	0.137 µM (active)	0.438 µM (active)		3.13 µM (inactive)	64.6 µM (inactive)	0.0422 µM (active)	0.0537 µM (active)	0.0446 µM (active)	10.1 µM (inactive)	11.5 µM (inactive)	0.384 µM (active)	0.649 µM (active)	0.757 µM (active)	0.0269 µM (active)	0.984 µM (active)	0.267 µM (active)	0.0668 µM (active)	> 100 µM (inactive)	1.4 µM (inactive)
O=C(c1ccccc1)C1C(C(=O)c2ccccc2)N1Cc1ccccc1 (configuration not stated)	27.6 µM (inactive)	27.9 µM (inactive)	46.9 µM (inactive)	13.9 µM (inactive)	32.3 µM (inactive)	33.5 µM (inactive)	24.3 µM (inactive)	21.8 µM (inactive)	21.4 µM (inactive)	34.8 µM (inactive)	> 100 µM (inactive)	38.6 µM (inactive)	27.8 µM (inactive)	49.8 µM (inactive)	36.5 µM (inactive)			34.4 µM (inactive)	32.6 µM (inactive)	48.3 µM (inactive)
CC(=O)OC1CN2CCC1CC2 (configuration not stated) [ACECLIDINE]	> 100 µM (inactive)	> 100 µM (inactive)	> 100 µM (inactive)		> 100 µM (inactive)	> 100 µM (inactive)	> 100 µM (inactive)	> 100 µM (inactive)	> 100 µM (inactive)	> 100 µM (inactive)	> 100 µM (inactive)	> 100 µM (inactive)	> 100 µM (inactive)	> 100 µM (inactive)	> 100 µM (inactive)	> 100 µM (inactive)	> 100 µM (inactive)	> 100 µM (inactive)	> 100 µM (inactive)	> 100 µM (inactive)
